Activity calls are given as the source filed them. No rule for the calls is given here.
Test system: prostate cell differentiation activation, dose response
Assay: prostate cell differentiation inducers, concentration series – secondary assay, dose response (AID 1196)

## N=c1n(CCN2CCCCC2)c2ccccc2n1CC(O)COc1ccccc1 (stereo not given)
  EC50: 2.21 µM

## COc1ccc(CCn2c(=N)c(C(=O)NCc3ccco3)cc3c(=O)n4ccccc4nc32)cc1
  EC50: 29.2 µM (inactive)

## CCN(CC)CCNC(=O)c1cc2c(-c3ccc(Cl)cc3)nn(C)c2s1
  EC50: 2.48 µM

## CCN(CC)CCNC(=O)c1ccc(N2CCCCC2)c(NS(=O)(=O)c2ccc(C)cc2)c1
  EC50: 5.88 µM

## O=C(NCCCN1CCN(c2cccc(Cl)c2)CC1)c1cccc(N2CCCC2=O)c1
  EC50: 17.1 µM (inactive)

## CN(C)c1ccc(CNC2CC(C)(C)NC(C)(C)C2)cc1
  EC50: 5.53 µM

## CC1CCCCN1CCNC(=O)c1ccc2c(=O)n(CCc3ccccc3)c(=O)[nH]c2c1 (stereo not given)
  EC50: 16.2 µM (inactive)

## CCOc1cccc2cc(-c3cn4cc(C)ccc4n3)c(=O)oc12
  EC50: 3.03 µM

## CCOC(=O)c1ccccc1NC(=O)Cn1c(-c2nonc2N)nc2ccccc21
  EC50: 0.218 µM

## CCN1CCCC1CNC(=O)C1CCN(Cc2nc(-c3cccc(Br)c3)oc2C)CC1 (stereo not given)
  EC50: 1.16 µM

## CN(C)CCCN1c2ccccc2CCc2ccc(Cl)cc21
  EC50: 1.46 µM

## CCCOc1ccccc1C1CC(=O)Nc2cc3c(cc21)OCO3 (stereo not given)
  EC50: 0.239 µM

## COc1ccccc1NC(=O)c1nc[nH]c1C(=O)Nc1ccccc1OC
  EC50: 2.67 µM

## CCN1CCN(C(c2cccs2)C(C)NS(=O)(=O)c2ccc(Br)cc2)CC1 (stereo not given)
  EC50: 16.8 µM (inactive)

## Cc1oc(-c2ccc(Cl)cc2)nc1CN1CCC(C(=O)NCCCN2CCOCC2)CC1
  EC50: 3.44 µM

## Cc1ccc(C)c(N2CCN(CCCNC(=O)Cn3cc4c(n3)CCCCC4)CC2)c1
  EC50: 2.68 µM

## Cc1ccc(Nc2cc(=O)n(C3CCCCC3)c(=O)[nH]2)cc1C
  EC50: 0.0873 µM

## Cc1cc(N2CCN(C)CC2)nc2ccc(NC(=O)c3ccc(Br)o3)cc12
  EC50: 2.21 µM

## Cc1ccccc1-c1nc(CN2CCC(C(=O)NCCCN3CC(C)CC(C)C3)CC2)c(C)o1 (stereo not given)
  EC50: 1.27 µM

## Cn1c(=O)cc(OCC(=O)NCCCN2CCN(c3ccccc3F)CC2)c2ccccc21
  EC50: 27.8 µM (inactive)

## Cc1ccccc1-c1nc(CN2CCCC(C(=O)NCCCN3CCOCC3)C2)c(C)o1 (stereo not given)
  EC50: 11.7 µM (inactive)

## COc1ccc(Nc2nc(N)nc(CN3CCC(Cc4ccccc4)CC3)n2)cc1
  EC50: 2.89 µM

## CCN(CC)CCCNC(=O)c1cc2c(-c3ccc(Cl)cc3)nn(C)c2s1
  EC50: 2.85 µM

## CCOc1ccccc1NC(=O)c1nc[nH]c1C(=O)Nc1ccccc1OCC
  EC50: 8.92 µM

## CCn1c(=O)cc(SCC(=O)NCCCN2CCN(c3ccccc3F)CC2)c2ccccc21
  EC50: 9.05 µM

## COc1ccc(-c2noc(-c3cc(Cl)ccc3Cl)n2)cc1OC
  EC50: 10.3 µM (inactive)

## Cn1nc(-c2ccc(Cl)cc2)c2cc(C(=O)NCCCN3CCOCC3)sc21
  EC50: 5.34 µM

## Cc1ccc2c(c1)-c1c(cnn1CC(=O)Nc1ccccc1N1CCN(C)CC1)CO2
  EC50: 6.04 µM

## CCN1CCN(c2cc(C)c3cc(NC(=O)c4ccc(Br)o4)ccc3n2)CC1
  EC50: 3.37 µM

## Cc1oc(-c2ccc(Cl)cc2)nc1CN1CCC(C(=O)N2CCN(Cc3ccccc3)CC2)CC1
  EC50: 1.81 µM

## Cn1c(=O)cc(SCC(=O)NCCCN2CCN(c3ccccc3F)CC2)c2ccccc21
  EC50: 9.37 µM

## COc1cc2nc(N3CCN(C(=O)C4COc5ccccc5O4)CC3)nc(N)c2cc1OC (stereo not given)
  EC50: 8.34 µM

## Cn1c(C(=O)NCCCN2CCN(c3cccc(Cl)c3)CC2)cc2c(=O)n(C)c3ccccc3c21
  EC50: 11.1 µM (inactive)

## Cc1ccccc1-c1nc(CN2CCC(C(=O)NCCCN3CCOCC3)CC2)c(C)o1
  EC50: 5.47 µM

## CCN1CCN(CCNC(=O)C2CCN(Cc3nc(-c4ccc(Cl)cc4)oc3C)CC2)CC1
  EC50: 6.46 µM

## COc1ccc(-c2ccc(-c3noc(-c4ccccc4)n3)c(OC)n2)cc1
  EC50: 8.46 µM

## CCCN(CCC)CCNC(=O)C1CCN(Cc2nc(-c3ccc(Cl)cc3)oc2C)CC1
  EC50: 6.5 µM

## Cc1ccc(OCC(O)Cn2c(=N)n(CCN3CCCCC3)c3ccccc32)cc1 (stereo not given)
  EC50: 1.47 µM

## CCn1c(=O)cc(SCC(=O)NCCN2CCN(Cc3ccccc3)CC2)c2ccccc21
  EC50: 20.4 µM (inactive)

## Cc1ccccc1-c1nc(CN2CCC(C(=O)NCc3cccnc3)CC2)c(C)o1
  EC50: 12.5 µM (inactive)

## CCOc1ccc(NC(=O)COc2nsnc2N2CCCCC2)cc1
  EC50: 0.277 µM

## CCN1CCN(c2ncc(C(=O)Nc3cc(Cl)c(OC)cc3OC)c3ccccc23)CC1
  EC50: 5.27 µM

## CCN1CCCC1CNC(=O)c1cc2c(-c3ccc(Cl)cc3)nn(C)c2s1 (stereo not given)
  EC50: 1.51 µM

## COc1ccc2cc3cc(C(=O)Nc4ccccc4N4CCN(C)CC4)oc3nc2c1
  EC50: 3.87 µM

## Cc1ccccc1CS(=O)(=O)CCC(=O)NCCCN1CCN(c2ccccc2F)CC1
  EC50: 7.46 µM

From PubChem BioAssay AID1196 (NMMLSC, 2008)
